Columns and labels:
[1] = system: TRZSS: wheat, including spring and winter (Triticum aestivum); experiment: Post-emergent Test III, herbicidal activity in wheat and barley; type: in vivo; conditions: Table 8, 21 d; for GR20 TRZSS: dose for 20 percent growth reduction; for pest or weed control at 35 g/ha / pest or weed control at 70 g/ha / pest or weed control at 140 g/ha: Triticum aestivum, post-emergence, 504 h, post-emergent, read-out: Visual Growth Reduction (%) 21 Days After Application TRZSS; for pest or weed control at 35 g/ha: 35 g ai/ha; for pest or weed control at 70 g/ha: 70 g ai/ha; for pest or weed control at 140 g/ha: 140 g ai/ha
Method: (§1) Post-emergent Test III. Seeds of the desired test plant species were planted in Sun Gro MetroMix® 306 planting mixture, which typically has a pH of 6.0 to 6.8 and an organic matter content of about 30 percent, in plastic pots with a surface area of 103.2 square centimeters (cm^2). When required to ensure good germination and healthy plants, a fungicide treatment and/or other chemical or physical treatment was applied. The plants were grown for 7-36 days (d) in a greenhouse with an approximate 14 hour (h) photoperiod which was maintained at about 18° C. during the day and 17° C. during the night. Nutrients and water were added on a regular basis and supplemental lighting was provided with overhead metal halide 1000-Watt lamps as necessary. The plants were employed for testing when they reached the second or third true leaf stage.
(§2) A weighed amount, determined by the highest rate to be tested, of each test compound was placed in a 25 mL glass vial and was dissolved in 4 mL of a 97:3 v/v mixture of acetone and DMSO to obtain concentrated stock solutions. […] The concentrated stock solutions obtained were diluted with 20 mL of an aqueous mixture containing acetone, water, isopropyl alcohol, DMSO, Agri-Dex crop oil concentrate, and X-77 surfactant in a 48:39:10:1.5:1.5:0.02 v/v ratio to obtain spray solutions containing the highest application rates. Additional application rates were obtained by serial dilution of 12 mL of the high rate solution into a solution containing 2 mL of 97:3 v/v mixture of acetone and DMSO and 10 mL of an aqueous mixture containing acetone, water, isopropyl alcohol, DMSO, Agri-Dex crop oil concentrate, and X-77 surfactant in a 48:39:10:1.5:1.5:0.02 v/v ratio to obtain ½×, ¼×, ⅛× and 1/16× rates of the high rate. Compound requirements are based upon a 12 mL application volume at a rate of 187 liters per hectare (L/ha). Formulated compounds were applied to the plant material with an overhead Mandel track sprayer equipped with 8002E nozzles calibrated to deliver 187 L/ha over an application area of 0.503 square meters at a spray height of 18 inches (43 cm) above the average plant canopy height. Control plants were sprayed in the same manner with the solvent blank.
(§3) The treated plants and control plants were placed in a greenhouse as described above and watered by subirrigation to prevent wash-off of the test compounds. After 21 d, the condition of the test plants as compared with that of the untreated plants was determined visually and scored on a scale of 0 to 100 percent where 0 corresponds to no injury and 100 corresponds to complete kill.
(§4) By applying the well-accepted probit analysis as described by J. Berkson in Journal of the American Statistical Society, 48, 565 (1953) and by D. Finney in “Probit Analysis” Cambridge University Press (1952), herbicidal injury of a specific compound at various rates can be used to calculate GR20, GR50, GR80 and GR90 values, which are defined as growth reduction factors that correspond to the effective dose of herbicide required to provide plant growth reduction (GR) of 20 percent, 50 percent, 80 percent and 90 percent, respectively. Probit analysis was applied to data collected from multiple dose rates of individual compounds utilizing the procedures explained in the following examples. The analysis of those dose rates is captured in the following tables.

[2] = system: MATSS: scented mayweed (Matricaria chamomilla), pineappleweed (Matricaria matricarioides); experiment: as above; type: in vivo; conditions: Table 8, 21 d; for pest or weed control at 35 g/ha / pest or weed control at 70 g/ha / pest or weed control at 140 g/ha: Matricaria chamomilla, post-emergence, 504 h, post-emergent, read-out: Visual Growth Reduction (%) 21 Days After Application MATSS; for pest or weed control at 35 g/ha: 35 g ai/ha; for pest or weed control at 70 g/ha: 70 g ai/ha; for GR50 MATSS: dose for 50 percent growth reduction; for GR50 MATSS / GR80 MATSS: probit analysis; for GR80 MATSS: dose for 80 percent growth reduction; for pest or weed control at 140 g/ha: 140 g ai/ha
Method: as §1, §2, §3, §4

[3] = system: KCHSC: kochia (Kochia scoparia); experiment: as above; type: in vivo; conditions: Table 8, 21 d; for pest or weed control at 35 g/ha / pest or weed control at 70 g/ha / pest or weed control at 140 g/ha: Bassia scoparia, post-emergence, 504 h, post-emergent, read-out: Visual Growth Reduction (%) 21 Days After Application KCHSC; for pest or weed control at 35 g/ha: 35 g ai/ha; for pest or weed control at 70 g/ha: 70 g ai/ha; for GR50 KCHSC: dose for 50 percent growth reduction; for GR50 KCHSC / GR80 KCHSC: probit analysis; for GR80 KCHSC: dose for 80 percent growth reduction; for pest or weed control at 140 g/ha: 140 g ai/ha
Method: as §1, §2, §3, §4

[4] = system: HORSS: barley, including spring and winter (Hordeum vulgare); experiment: as above; type: in vivo; conditions: Table 8, 21 d; for pest or weed control at 35 g/ha / pest or weed control at 70 g/ha / pest or weed control at 140 g/ha: Hordeum vulgare, post-emergence, 504 h, post-emergent, read-out: Visual Growth Reduction (%) 21 Days After Application HORSS; for pest or weed control at 35 g/ha: 35 g ai/ha; for pest or weed control at 70 g/ha: 70 g ai/ha; for GR20 HORSS: dose for 20 percent growth reduction; for pest or weed control at 140 g/ha: 140 g ai/ha
Method: as §1, §2, §3, §4

[5] = dose for 80 percent growth reduction, probit analysis

| Compound | melting point | GR20 TRZSS ([1]; probit analysis) | pest or weed control at 35 g/ha [1] | pest or weed control at 70 g/ha [1] | pest or weed control at 35 g/ha [2] | pest or weed control at 70 g/ha [2] | GR50 MATSS [2] | GR80 MATSS [2] | pest or weed control at 35 g/ha [3] | pest or weed control at 70 g/ha [3] | GR80 KCHSC [3] | pest or weed control at 35 g/ha [4] | pest or weed control at 70 g/ha [4] | GR20 HORSS ([4]; probit analysis) | other results |
| --- | --- | --- | --- | --- | --- | --- | --- | --- | --- | --- | --- | --- | --- | --- | --- |
| COC(=O)c1nc(-c2cc(F)c(Br)cc2F)nc(N)c1OC [Compound 2] | 186 to 187 °C |  |  |  |  |  |  |  |  |  |  |  |  |  |  |
| COc1c(N)nc(-c2cc(F)c(Br)cc2F)nc1C(=O)O [Compound 11] | 132 to 133 °C |  |  |  |  |  |  |  |  |  |  |  |  |  |  |
| C=Cc1c(C(=O)OC)nc(-c2ccc(C(F)(F)F)c(F)c2)c(F)c1N [Compound 12] | 77 to 78 °C |  |  |  |  |  |  |  |  |  |  |  |  |  |  |
| COC(=O)c1nc(-c2ccc(OC(F)F)cc2)cc(N)c1Cl [Compound 23] | 166.4 to 169 °C |  |  |  |  |  |  |  |  |  |  |  |  |  |  |
| COC(=O)c1nc(-c2ccc(I)c(F)c2)nc(N)c1OC [Compound 27, Methyl 6-amino-2-(3-fluoro-4-iodophenyl)-5-methoxypyrimidine-4-carboxylate] |  | 11 g ai/ha | 60 to 74% | 75 to 84% | 30 to 44% | 30 to 44% | 109 g ai/ha | >140 g ai/ha | 75 to 84% | 75 to 84% | 61 g ai/ha | 30 to 44% | 45 to 59% | 11 g ai/ha | GR50 KCHSC [3]: 18 g ai/ha |
| C#Cc1ccc(-c2nc(C(=O)OC)c(Cl)c(N)c2Cl)cc1 [Compound 34] | 164.2 to 166.8 °C |  |  |  |  |  |  |  |  |  |  |  |  |  |  |
| COc1c(N)nc(-c2ccc(I)c(F)c2)nc1C(=O)O [Compound 37, 6-Amino-2-(3-fluoro-4-iodophenyl)-5-methoxypyrimidine-4-carboxylic acid] |  | 3 g ai/ha | 75 to 84% | 85 to 94% | 60 to 74% | 60 to 74% | 21 g ai/ha | 77 g ai/ha | 45 to 59% | 60 to 74% | 119 g ai/ha | 60 to 74% | 75 to 84% | 5 g ai/ha | GR50 KCHSC [3]: 34 g ai/ha |
| Nc1c(Cl)c(C(=O)O)nc(-c2ccc(Br)c(F)c2)c1Cl [Compound 43, 4-Amino-6-(4-bromo-3-fluorophenyl)-3,5-dichloropicolinic acid] |  | 1 g ai/ha | 85 to 94% | 95 to 100% | 85 to 94% | 95 to 100% | 3 g ai/ha | 7 g ai/ha | 60 to 74% | 85 to 94% | 41 g ai/ha | 95 to 100% | 95 to 100% | 1 g ai/ha | GR50 KCHSC [3]: 11 g ai/ha |
| C=Cc1c(C(=O)OC)nc(-c2ccc(C(F)(F)F)c(F)c2F)c(F)c1N [Compound 53, methyl 4-amino-6-(2,3-difluoro-4-(trifluoromethyl)phenyl)-5-fluoro-3-vinylpicolinate] | 118 to 120 °C |  |  |  |  |  |  |  |  |  |  |  |  |  |  |
| COC(=O)c1nc(-c2cc(F)c(I)cc2F)cc(N)c1Cl [Compound 56] | 142 to 144 °C |  |  |  |  |  |  |  |  |  |  |  |  |  |  |
| C=Cc1c(C(=O)OC)nc(-c2ccc(Br)cc2)c(F)c1N [Compound 57, methyl 4-amino-6-(4-bromophenyl)-5-fluoro-3-vinylpicolinate] | 93 to 94 °C |  |  |  |  |  |  |  |  |  |  |  |  |  |  |
| COC(=O)c1nc(-c2ccc(I)c(F)c2)cc(N)c1Cl [Compound 66, methyl 4-amino-3-chloro-6-(3-fluoro-4-iodophenyl)picolinate] | 141 to 143 °C |  |  |  |  |  |  |  |  |  |  |  |  |  |  |
| Cc1c(-c2ccc(Br)cc2)nc(C(=O)O)c(Cl)c1N [Compound 78, 4-Amino-6-(4-bromophenyl)-3-chloro-5-methylpicolinic acid] | 185.5 to 187 °C |  |  |  |  |  |  |  |  |  |  |  |  |  |  |
| COC(=O)c1nc(-c2ccc(C#N)cc2)c(C)c(N)c1Cl [Compound 83, Methyl 4-amino-3-chloro-6-(4-cyanophenyl)-5-methylpicolinate] | 145 to 148 °C |  |  |  |  |  |  |  |  |  |  |  |  |  |  |
| COC(=O)c1nc(-c2ccc(C#N)c(F)c2)c(F)c(N)c1Cl [Compound 135, methyl 4-amino-3-chloro-6-(4-cyano-3-fluorophenyl)-5-fluoropicolinate] |  | 16 g ai/ha | 30 to 44% | 30 to 44% | 30 to 44% | 30 to 44% | 125 g ai/ha | >140 g ai/ha | 75 to 84% | 75 to 84% | 130 g ai/ha | 0 to 29% | 30 to 44% | 37 g ai/ha | GR80 TRZSS [1, 5]: >140 g ai/ha; pest or weed control at 140 g/ha [1]: 45 to 59%; pest or weed control at 140 g/ha [2]: 45 to 59%; pest or weed control at 140 g/ha [3]: 75 to 84%; GR50 KCHSC [3]: 3 g ai/ha; pest or weed control at 140 g/ha [4]: 60 to 74%; GR80 HORSS [4, 5]: >140 g ai/ha |
| Nc1c(Cl)c(C(=O)O)nc(-c2ccc(I)c(F)c2)c1Cl [Compound 145, 4-Amino-3,5-dichloro-6-(3-fluoro-4-iodophenyl)picolinic acid] |  | 1 g ai/ha | 85 to 94% | 85 to 94% | 95 to 100% | 95 to 100% | 3 g ai/ha | 10 g ai/ha | 60 to 74% | 60 to 74% | 112 g ai/ha | 85 to 94% | 95 to 100% | 1 g ai/ha | pest or weed control at 140 g/ha [1]: 85 to 94%; pest or weed control at 140 g/ha [2]: 95 to 100%; pest or weed control at 140 g/ha [3]: 75 to 84%; GR50 KCHSC [3]: 37 g ai/ha; pest or weed control at 140 g/ha [4]: 95 to 100% |
| COC(=O)c1nc(-c2ccc(Br)c(F)c2)nc(N)c1OC [Compound 171, Methyl 6-amino-2-(4-bromo-3-fluorophenyl)-5-methoxypyrimidine-4-carboxylate] |  | 11 g ai/ha | 75 to 84% | 85 to 94% | 30 to 44% | 30 to 44% | >140 g ai/ha | >140 g ai/ha | 85 to 94% | 95 to 100% | 23 g ai/ha | 45 to 59% | 60 to 74% | 20 g ai/ha |  |

Source: patent US9113629B2, “4-amino-6-(4-substituted-phenyl)-picolinates and 6-amino-2-(4-substituted-phenyl)-pyrimidine-4-carboxylates and their use as herbicides” (DOW AGROSCIENCES LLC, priority 2013, dated 2015)
